According to patent publication US20260097036A1 (Kadmon Corporation, LLC, priority 2022, published 2026):
Values joined by “and” are separate entries in the source; they are usually repeats but may differ in a detail not shown here. Identical values can stand only once. Like-named read-outs stand apart in the source and are kept apart here. Blank lines part the entries; values can stand above or below the compound they belong to.

Assays:
[1] = Part 2 relative bioavailability and food effect, plasma PK; assay type: in vivo, human; conditions: for Tlag / Tmax / AUC (0-24) / AUC (0-last) / Cmax / Lambda-z / T1/2 / median Tmax / AUC % extrap / half-life / AUC(0-inf) / AUC(0-t): plasma; for peak (Cmax) and total exposure (AUC), liquid formulation vs tablet: both in the fed state, GMR comparison; for food effect on exposure, fed vs fasted: oral liquid formulation
Procedure: Subjects underwent preliminary screening procedures to determine their eligibility for Part 2 of the study at the screening visit (Day −28 to Day −2 of Part 2). Subjects who took part in Part 1 of the study were permitted to take part in Part 2.
Three different regimens (G, H, and I), were used over the three periods. In Regimen G, belumosudil was administered in Tablet form (reference); and in Regimens H and I, belumosudil was administered in the form of Oral Liquid Formulation.
In Period 1, Day 1: subjects were randomized prior to administration of the first dose of IMP to 1 of 6 treatment sequences (GHI, HIG, IGH, IHG, GIH and HGI) with 3 subjects assigned to each treatment sequence. On Day 1 of each study period (periods 1, 2 and 3), subjects received the regimens in Table 36:
Regimen H was administered to subjects as a flavorless low sucralose liquid formulation in a fasted state, and Regimens G and I were administered to subjects in a fed state. Regimen G was administered with a total of 240 mL of water. For Regimens H and I, immediately after IMP administration, subjects consumed water to a total volume of 240 mL (including the dosing volume).
Subjects received a single dose of IMP in the morning of Day 1 following an overnight fast of a minimum of 10 h (Regimen H, fasted state) or following a standard breakfast (Regimens G and I, fed state). Blood samples were collected at regular intervals for PK analysis. Following administration of Regimen H, subjects completed a written taste/palatability questionnaire individually and privately.
Subjects were resident in the clinical unit for 10 consecutive nights that covered all 3 treatment periods. All subjects remained on site until 72 h post-final dose for safety and PK assessments. There was a minimum washout of 3 days between each IMP administration. To ensure the ongoing wellbeing of the subjects, a follow-up phone call took place 3 to 7 days post-final dose. If a subject reported any AEs after discharge which represented a cause for concern, they were required to attend the clinical unit for a follow-up assessment. This would have been an unscheduled visit.

[2] = cited from earlier work
[3] = particle size distribution, Sympatec Helos wet dispersion; assay type: physicochemical; conditions: 40 mg/mL in water, R3 and R5 lens
Procedure: Samples were assessed using the Sympatec Helos Particle Size Analyzer using the generic method for wet dispersions as outlined below: • R5 Lens and R3 Lens • Sample added until 10-15% Copt achieved • Method run producing 3 replicates (sample stirred and sonicated throughout measurement run)
Samples were assessed using the Sympatec Helos Particle Size Analyzer, with sample added until 10-15% Copt was achieved. Two different lens assemblies were used giving the following ranges for particle size assessment, R3 Lens (0.5-175 μm) and the R5 Lens (4.8-875 μm). Three replicates were performed as part of the measurement run, with the sample stirred and sonicated as part of the method.

[4] = Regimen G: 200 mg Tablet, Fed, single oral dose, healthy male volunteers, median (range)
[5] = Regimen G: 200 mg Tablet, Fed, single oral dose, geometric mean (CV%)
[6] = Regimen G: 200 mg Tablet, Fed, single oral dose, geometric mean (CV%), individual values where n <= 2
[7] = Regimen H: 200 mg Liquid Formulation, Fasted, single oral dose, healthy male volunteers, median (range)
[8] = Regimen H: 200 mg Liquid Formulation, Fasted, single oral dose, geometric mean (CV%)
[9] = Regimen H: 200 mg Liquid Formulation, Fasted, single oral dose, geometric mean (CV%), individual values where n <= 2
[10] = Regimen I: 200 mg Liquid Formulation, Fed, single oral dose, healthy male volunteers, median (range)
[11] = Regimen I: 200 mg Liquid Formulation, Fed, single oral dose, geometric mean (CV%)
[12] = Regimen I: 200 mg Liquid Formulation, Fed, single oral dose, geometric mean (CV%), individual values where n <= 2

SMILES: O=C([O-])c1ccccc1.[Na+] [Sodium Benzoate]
ADI ([2]; JECFA (1996)): 2-5. The JECFA (1996) has set an ADI of up to 5 mg/kg body- mg/kg body-weight

SMILES: OC[C@H]1O[C@H](O[C@]2(CCl)O[C@H](CCl)[C@@H](O)[C@@H]2O)[C@H](O)[C@@H](O)[C@H]1Cl [Sucralose]
ADI ([2]; set in 2000): An ADI of up to 15 mg/kg body weight was set in 2000. In

SMILES: CC(C)NC(=O)COc1cccc(-c2nc(Nc3ccc4[nH]ncc4c3)c3ccccc3n2)c1 [jet-milled belumosudil]
PSD of wet dispersion in sterile water for irrigation [3]: poor results with readings that were inconsistent between the measurement runs

More lines, main results first:

Tlag [1, 4]: 1.00 h | Tmax [1, 4]: 2.00 h | AUC (0-24) [1, 5]: 45.3 (63.9%) [n = 15] ng · h/mL | AUC (0-last) [1, 5]: 42.7 (50.7%) [n = 15] ng · h/mL | Cmax [1, 5]: 22.3 ng/mL | Lambda-z [1, 6]: 0.24 h⁻¹ and 0.38 h⁻¹ | T1/2 [1, 6]: 1.81 h and 2.88 h | Tlag [1, 7]: 0.00 (0.00-1.00) [n = 17] h | Tmax [1, 7]: 1.00 (0.500-1.50) [n = 17] h | AUC (0-24) [1, 8]: 34.9 (104.8%) [n = 12] ng · h/mL | AUC (0-last) [1, 8]: 30.3 (70.9%) [n = 12] ng · h/mL | Cmax [1, 8]: 19.0 (41.7%) [n = 17] ng/mL | Lambda-z [1, 9]: 0.26 h⁻¹ and 0.3 h⁻¹ | T1/2 [1, 9]: 2.28 h and 2.67 h | Tlag [1, 10]: 0.500 (0.00-1.00) [n = 17] h | Tmax [1, 10]: 1.50 (0.500-3.00) [n = 17] h | AUC (0-24) [1, 11]: 49.4 (83.1%) [n = 17] ng · h/mL | AUC (0-last) [1, 11]: 37.9 (53.2%) [n = 17] ng · h/mL | Cmax [1, 11]: 19.4 (27.6%) [n = 17] ng/mL | Lambda-z [1, 12]: 0.326 [n = 1] l/h | T1/2 [1, 12]: 2.128 [n = 1] h | food effect on exposure, fed vs fasted [1]: moderate increases in total exposure | median Tmax ([1]; single oral 200 mg as liquid formulation (fed)): 1.5 h | median Tmax ([1]; single oral 200 mg as tablet reference, fed, listed as KD025 ml): 2.00 h and 2 h
SMILES: NC(=O)COc1cccc(-c2nc(Nc3ccc4[nH]ncc4c3)c3ccccc3n2)c1 [KD025m1]
peak (Cmax) and total exposure (AUC), liquid formulation vs tablet ([1]; listed as KD025 ml): largely similar to that of the tablet reference

Tlag [1, 4]: 1.00 h | AUC % extrap [1, 5]: 5.607 (49.8%) [n = 8] | Lambda-z [1, 5]: 0.281 (43.1%) [n = 8] 1/h | Tlag [1, 7]: 0.00 h | AUC % extrap [1, 8]: 4.453 (60.7%) [n = 10] | Lambda-z [1, 8]: 0.277 (87.4%) [n = 10] 1/h | Tlag [1, 10]: 0.00 h | AUC % extrap [1, 11]: 5.388 (43.1%) [n = 10] | Lambda-z [1, 11]: 0.273 (56.5%) [n = 10] 1/h | peak (Cmax) and total exposure (AUC), liquid formulation vs tablet [1]: similar | half-life ([1]; male, human, oral, 200 mg, tablet reference 200 mg, fed, read-out: geometric mean T1/2 (converted)): 2.47 h | Tmax ([1]; male, human, po, 200 mg, Regimen G: 200 mg Tablet, Fed, single oral dose, healthy male volunteers, median (range), read-out: Tmax): 3 h | AUC(0-inf) ([1]; male, human, po, 200 mg, Regimen G: 200 mg Tablet, Fed, single oral dose, geometric mean (CV%)): 1180 ng·h/mL | half-life ([1]; male, human, po, 200 mg, Regimen G: 200 mg Tablet, Fed, single oral dose, geometric mean (CV%), individual values where n <= 2, read-out: T1/2 (converted)): 2.47 h | AUC(0-t) ([1]; male, human, po, 200 mg, Regimen G: 200 mg Tablet, Fed, single oral dose, geometric mean (CV%), read-out: AUC (0-24)): 1280 ng·h/mL | AUC(0-t) ([1]; male, human, po, 200 mg, Regimen G: 200 mg Tablet, Fed, single oral dose, geometric mean (CV%), read-out: AUC (0-last)): 1200 ng·h/mL | Cmax ([1]; male, human, po, 200 mg, Regimen G: 200 mg Tablet, Fed, single oral dose, geometric mean (CV%), read-out: Cmax): 406 ng/mL | Tmax ([1]; male, human, po, 200 mg, Regimen H: 200 mg Liquid Formulation, Fasted, single oral dose, healthy male volunteers, median (range), read-out: Tmax): 1.5 h | AUC(0-inf) ([1]; male, human, po, 200 mg, Regimen H: 200 mg Liquid Formulation, Fasted, single oral dose, geometric mean (CV%)): 1030 ng·h/mL | half-life ([1]; male, human, po, 200 mg, Regimen H: 200 mg Liquid Formulation, Fasted, single oral dose, geometric mean (CV%), individual values where n <= 2, read-out: T1/2 (converted)): 2.51 h | AUC(0-t) ([1]; male, human, po, 200 mg, Regimen H: 200 mg Liquid Formulation, Fasted, single oral dose, geometric mean (CV%), read-out: AUC (0-24)): 1130 ng·h/mL | AUC(0-t) ([1]; male, human, po, 200 mg, Regimen H: 200 mg Liquid Formulation, Fasted, single oral dose, geometric mean (CV%), read-out: AUC (0-last)): 1080 ng·h/mL | Cmax ([1]; male, human, po, 200 mg, Regimen H: 200 mg Liquid Formulation, Fasted, single oral dose, geometric mean (CV%), read-out: Cmax): 372 ng/mL | Tmax ([1]; male, human, po, 200 mg, Regimen I: 200 mg Liquid Formulation, Fed, single oral dose, healthy male volunteers, median (range), read-out: Tmax): 2 h | AUC(0-inf) ([1]; male, human, po, 200 mg, Regimen I: 200 mg Liquid Formulation, Fed, single oral dose, geometric mean (CV%)): 926 ng·h/mL | half-life ([1]; male, human, po, 200 mg, Regimen I: 200 mg Liquid Formulation, Fed, single oral dose, geometric mean (CV%), individual values where n <= 2, read-out: T1/2 (converted)): 2.54 h | AUC(0-t) ([1]; male, human, po, 200 mg, Regimen I: 200 mg Liquid Formulation, Fed, single oral dose, geometric mean (CV%), read-out: AUC (0-24)): 1180 ng·h/mL | AUC(0-t) ([1]; male, human, po, 200 mg, Regimen I: 200 mg Liquid Formulation, Fed, single oral dose, geometric mean (CV%), read-out: AUC (0-last)): 1120 ng·h/mL | Cmax ([1]; male, human, po, 200 mg, Regimen I: 200 mg Liquid Formulation, Fed, single oral dose, geometric mean (CV%), read-out: Cmax): 319 ng/mL | Tmax ([1]; male, human, po, 200 mg, single oral 200 mg as liquid formulation (fed), read-out: median Tmax): 2 h | Tmax ([1]; male, human, po, 200 mg, single oral 200 mg as tablet reference, fed, read-out: median Tmax): 3 h | food effect on exposure, fed vs fasted [1]: No notable changes
SMILES: O=C(O)COc1cccc(-c2nc(Nc3ccc4[nH]ncc4c3)c3ccccc3n2)c1 [KD025m2, 2-(3-(4-(1H-indazol-5-ylamino)quinazolin-2-yl)phenoxy) acetic acid]

PSD of wet dispersion in sterile water for irrigation [3]: reproducibility between replicates
SMILES: CC(C)NC(=O)COc1cccc(-c2nc(Nc3ccc4[nH]ncc4c3)c3ccccc3n2)c1 [pin-milled API]
